# US8053478B1, “Antimicrobial diaryl iodonium compositions and method” (Cornell Development Group, LLC, priority 2007, dated 2011)
# Tests used:
# mice = details: cited from earlier work
# human epithelial cells = assay: tests of toxicity on human epithelial cells; type: cell-based; details: approximate levels of 0.25 millimole concentrations; compared with controls
# [1] = system: several strains of Staphylococcus aurelius, including Methicillin-resistant Staphylococcus aureus isolates; assay: MIC50 on Staphylococcus strains including Methicillin-resistant Staphylococcus aureus isolates; type: cell-based; details: same bacteria strains, incl. MRSA isolates; comparator 4-chlorophenyl 2-thienyl iodonium chloride
# E. Coli = assay: challenging the growth of E. Coli with measurement of optical density of media; type: cell-based; details: same optical density reduction; comparator 4-chlorophenyl-2-thienyliodonium bromide
# Description: In an experiment challenging the growth of E. Coli with measurement of optical density of media, the present iodonium composition, 3,5-dimethyl 4-chlorophenyl 2-thienyl iodonium bromide, suppressed the optical density of the E. Coli media at one tenth the concentration needed to accomplish the same optical density reduction utilizing 4-chlorophenyl-2-thienyliodonium bromide. Optical density of the media is a semi-quantitative measure of the presence of growing bacteria. Reduced density indicates the test compounds are retarding bacterial growth. Thus, 3,5-dimethyl 4-chlorophenyl 2-thienyl iodonium bromide, which is non-toxic to mammals, has greater antimicrobial activity than 4-chlorophenyl-2-thienyliodonium bromide.
compound,measurement,setting,value
Clc1ccc([I+]c2cccs2)cc1.[Cl-] [4-chlorophenyl-2-thienyliodonium chloride],oral median lethal dose (LD50),mice,greater than 4000 mg/kg
"Clc1ccc([I+]c2cccs2)cc1.[Br-] [4-chlorophenyl-2-thienyliodonium bromide, reference compound]",toxicity on human epithelial cells,human epithelial cells,lack of toxicity similar to that of controls
"Cc1cc([I+]c2cccs2)cc(C)c1Cl.[Br-] [3,5-dimethyl 4-chlorophenyl 2-thienyl iodonium bromide]",toxicity on human epithelial cells,human epithelial cells,lack of toxicity similar to that of controls
same,MIC50 as fraction of the MIC50 for 4-chlorophenyl 2-thienyl iodonium chloride,[1],one fifth
same,"concentration needed to suppress optical density of E. Coli media, as fraction of that needed with 4-chlorophenyl-2-thienyliodonium bromide",E. Coli,one tenth
